In paper PMC5889867, “Inhibition of Protein Aggregation by Several Antioxidants” (Oxidative Medicine and Cellular Longevity, 2018):
Several values for one entry are separate records, joined by “and”; a condition that tells them apart may be missing. Equal entries are not always repeated.

molecular target: T1, human stefin B (stB wt) (Homo sapiens, UniProt P04080, C3S); experiment: intrinsic Tyr fluorescence quenching, modified Stern-Volmer; type: binding; details: 34 uM protein, 25 C, excitation 277 nm
T1 construct: gene CSTB; Cys3 replaced by Ser
T1 sequence (P04080 1-98 C3S): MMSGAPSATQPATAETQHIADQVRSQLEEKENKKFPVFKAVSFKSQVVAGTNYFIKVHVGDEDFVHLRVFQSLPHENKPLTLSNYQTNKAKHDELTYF

Molecule | Ka
CC(=O)N[C@@H](CS)C(=O)O [NAC, (2R)-2-acetamido-3-sulfanyl propanoic acid] | each compound also acts as a quencher of tyrosine fluorescence
COc1cc(/C=C/C(=O)CC(=O)/C=C/c2ccc(O)c(OC)c2)ccc1O [curcumin, (1E,6E)-1,7-bis(4-hydroxy-3-methoxyphenyl)hepta-1,6-diene-3,5-dione] | binding constants show that curcumin binds more tightly than do other antioxidants studied here
O=c1c(O)c(-c2ccc(O)c(O)c2)oc2cc(O)cc(O)c12 [quercetin, 2-(3,4-dihydroxyphenyl)-3,5,7-trihydroxy-4H-chromen-4-one] | each compound also acts as a quencher of tyrosine fluorescence
Oc1ccc(/C=C/c2cc(O)cc(O)c2)cc1 [resveratrol, 3,5,40-trihydroxystilbene] | each compound also acts as a quencher of tyrosine fluorescence
O=C1O[C@H]([C@@H](O)CO)C(O)=C1O [vitamin C, (2R)-2-[(1S)-1,2-dihydroxyethyl]-3,4-dihydroxy-2H-furan-5-one] | each compound also acts as a quencher of tyrosine fluorescence

molecular target: human stefin B (stB wt), recombinant, Cys 3 replaced with Ser (human) (UniProt P04080); experiment: cross-linking; stB wt fibrillation mixture (34 uM protein, 0.015 M acetate buffer, 0.15 M NaCl, pH 4.8, 10% v/v TFE, room temperature) aged 24 hours, with or without antioxidants (NAC, vit C and others); cross-linked with 50-fold molar excess of BS3, then SDS-PAGE; details: not given

stoichiometry N | Molecule
2 and > 4 | human stefin B (stB wt), recombinant, Cys 3 replaced with Ser (from UniProt P04080 8-98) (natural protein)
